Laboratory results: patent US6841548B2, “Pharmaceutical preparations containing estra-1,3,5(10)-triene derivatives” (Schering AG, priority 1994, dated 2005)
Values belong to the compound of their own block, whether it stands above or below them.

Columns and labels:
Format in all cases: in vivo, rat
ovariectomated rats [1] = assay: Oral estrogenic effects: uterus weights in ovariectomated rats
Source text: (§1) The laboratory animals, adult female rats (breeder: HSD/WIN:WU) were ovariectomated on day 14. Treatment started two weeks later by a single oral application per day of the respective test substance. The dosages given for esters refer to the steroid portion of the substances. The tests were made in three groups (A, B, C) at various points in time. This is why there is a deviation in control group values. The tests of series A, B, and C can therefore be compared among each other if the values for the respective control groups are taken into account.
(§2) The procedure of allocating animals to groups was randomized. The experiment was carried out as a block test. The animals were weighed at the beginning and at the end of the experiment.
(§3) The start of treatment was defined as day 1 (=d1), treatment was finished on day 7 (=d7); the animals were killed on day 8, various organs (uteri, adrenal glands, liver) were removed, weighed and deep-frozen (−196° C.) for further examination.

ovariectomated rats [2] = assay: Oral estrogenic effects: weights of adrenal glands in ovariectomated rats
Source text: as §1, §2, §3

ovariectomated rats [3] = assay: Oral estrogen treatment: serum IGF1 (somatomedin C), RIA; set-up: unit not given here; settings: Experiment A
Source text: as §1, §2, §3
(§4) Blood was taken from the retrobulbar plexus under ether anaesthesia prior to treatment (d0), and on (d4) and (d8). IGF1, angiotensin I, cholesterol and HDL cholesterol were determined in the serum obtained.
IGF1: RIA by bioMérieux Co.;

ovariectomated rats [4] = assay: Hepatic parameters: HDL cholesterol levels in serum, enzymatic test; settings: Experiment A
Source text: as §1, §2, §3, §4
(§5) cholesterol/HDL: enzymatic tests, photometric determination, reagents by Dr Bruno Lange GmbH.

ovariectomated rats [5] = assay: Hepatic parameters: total cholesterol levels in serum, enzymatic test; settings: for Total cholesterol levels (mean value ± standard deviation): Experiment A
Method: The laboratory animals, adult female rats (breeder: HSD/WIN:WU) were ovariectomated on day 14. Treatment started two weeks later by a single oral application per day of the respective test substance. The dosages given for esters refer to the steroid portion of the substances. The tests were made in three groups (A, B, C) at various points in time.
as §2, §3, §4, §5

ovariectomated rats [6] = assay: Hepatic parameters: serum angiotensin I, modified RIA for renin activity; set-up: Angiotensin I: unit not given here; settings: for Angiotensin I: Experiment A; for Influence on the angiotensin I level, summary in words: dose-action relationships on days 4 and 8
Source text: as §1, §2, §3, §4
angiotensin: modified RIA for renin activity by Sorin Co.

[7] = Experiment B, 10 μg/animal/day p.o. d1-d7
[8] = 100 μg/animal/day p.o. d1-d7, d 0 (prior to treatment)
[9] = 100 μg/animal/day p.o. d1-d7, d 4
[10] = 100 μg/animal/day p.o. d1-d7, d 8
[11] = day 4, 0.1 μg/animal/day p.o. d1-d7
[12] = day 4, 1 μg/animal/day p.o. d1-d7
[13] = day 4, 10 μg/animal/day p.o. d1-d7
[14] = day 4, 100 μg/animal/day p.o. d1-d7
[15] = day 8, 0.1 μg/animal/day p.o. d1-d7
[16] = day 8, 1 μg/animal/day p.o. d1-d7
[17] = day 8, 10 μg/animal/day p.o. d1-d7
[18] = day 8, 100 μg/animal/day p.o. d1-d7
[19] = Experiment A, 0.1 μg/animal/day p.o. d1-d7
[20] = Experiment A, 1 μg/animal/day p.o. d1-d7
[21] = Experiment A, 10 μg/animal/day p.o. d1-d7
[22] = Experiment A, 100 μg/animal/day p.o. d1-d7
[23] = Experiment C, 10 μg/animal/day p.o. d1-d7

SMILES: C[C@]12CC[C@@H]3c4ccc(O)cc4CC[C@H]3[C@@H]1CCC2=O [Example E1, estrone]
Uterus weights (mean value) (ovariectomated rats [1]; [7]): 170.63 mg
Weights of adrenal glands (mean value) (ovariectomated rats [2]; [7]): 49.8 mg

HDL cholesterol levels (mean value ± standard deviation) (ovariectomated rats [4]; [11]): 49.1 ± 7.8 mg/dL
HDL cholesterol levels (mean value ± standard deviation) (ovariectomated rats [4]; [12]): 50.9 ± 6.1 mg/dL
HDL cholesterol levels (mean value ± standard deviation) (ovariectomated rats [4]; [13]): 55.0 ± 6.9 mg/dL
HDL cholesterol levels (mean value ± standard deviation) (ovariectomated rats [4]; [14]): 43.7 ± 7.6 mg/dL
HDL cholesterol levels (mean value ± standard deviation) (ovariectomated rats [4]; [15]): 51.0 ± 4.6 mg/dL
HDL cholesterol levels (mean value ± standard deviation) (ovariectomated rats [4]; [16]): 52.3 ± 4.1 mg/dL
HDL cholesterol levels (mean value ± standard deviation) (ovariectomated rats [4]; [17]): 51.5 ± 3.9 mg/dL
HDL cholesterol levels (mean value ± standard deviation) (ovariectomated rats [4]; [18]): 46.0 ± 9.2 mg/dL
Angiotensin I (ovariectomated rats [6]; [11]): 376.2 ± 48.3
Angiotensin I (ovariectomated rats [6]; [12]): 359.8 ± 53.4
Angiotensin I (ovariectomated rats [6]; [13]): 412.8 ± 66.6
Angiotensin I (ovariectomated rats [6]; [14]): 497.7 ± 69.0
Angiotensin I (ovariectomated rats [6]; [15]): 449.5 ± 55.1
Angiotensin I (ovariectomated rats [6]; [16]): 392.9 ± 32.0
Angiotensin I (ovariectomated rats [6]; [17]): 335.5 ± 24.9
Angiotensin I (ovariectomated rats [6]; [18]): 464.3 ± 16.7
Effect on angiotensin I (AI) values, in words (ovariectomated rats [6]; at any dose throughout the experiment): no recognizable effect
SMILES: C[C@]12CC[C@@H]3c4ccc(O)cc4CC[C@H]3[C@@H]1CC[C@@H]2O [Example E2, estradiol]
IGF1 (= somatomedin C) (ovariectomated rats [3]; [8]): 717.4 ± 80.8
IGF1 (= somatomedin C) (ovariectomated rats [3]; [9]): 623.6 ± 100.0
IGF1 (= somatomedin C) (ovariectomated rats [3]; [10]): 601.1 ± 108.8
Uterus weights (mean value) (ovariectomated rats [1]; [19]): 123.3 mg
Uterus weights (mean value) (ovariectomated rats [1]; [20]): 128.9 mg
Uterus weights (mean value) (ovariectomated rats [1]; [21]): 130.7 mg
Uterus weights (mean value) (ovariectomated rats [1]; [22]): 285.4 mg
Uterus weights (mean value) (ovariectomated rats [1]; [7]): 182.3 mg
Effect on cholesterol levels in the blood (total and HDL), in words (ovariectomated rats [5]; all doses): did not reduce cholesterol levels in the blood
Weights of adrenal glands (mean value) (ovariectomated rats [2]; [19]): 49.3 mg
Weights of adrenal glands (mean value) (ovariectomated rats [2]; [20]): 57.9 mg
Weights of adrenal glands (mean value) (ovariectomated rats [2]; [21]): 61.6 mg
Weights of adrenal glands (mean value) (ovariectomated rats [2]; [22]): 54.4 mg
Weights of adrenal glands (mean value) (ovariectomated rats [2]; [7]): 54.4 mg
Influence on the angiotensin I level, summary in words (ovariectomated rats [6]): at best has marginal stimulating influence

SMILES: C[C@]12CC[C@@H]3c4ccc(O)cc4CC[C@H]3[C@@H]1C[C@@H](O)[C@@H]2O [Example E3, estratriol]
Uterus weights (mean value) (ovariectomated rats [1]; [23]): 301.94 mg
Weights of adrenal glands (mean value) (ovariectomated rats [2]; [23]): 52.2 mg

HDL cholesterol levels (mean value ± standard deviation) (ovariectomated rats [4]; [11]): 57.6 ± 6.5 mg/dL
HDL cholesterol levels (mean value ± standard deviation) (ovariectomated rats [4]; [12]): 57.1 ± 7.1 mg/dL
HDL cholesterol levels (mean value ± standard deviation) (ovariectomated rats [4]; [13]): 54.6 ± 5.7 mg/dL
HDL cholesterol levels (mean value ± standard deviation) (ovariectomated rats [4]; [14]): 13.2 ± 14.0 mg/dL
HDL cholesterol levels (mean value ± standard deviation) (ovariectomated rats [4]; [15]): 57.3 ± 6.0 mg/dL
HDL cholesterol levels (mean value ± standard deviation) (ovariectomated rats [4]; [16]): 59.6 ± 6.8 mg/dL
HDL cholesterol levels (mean value ± standard deviation) (ovariectomated rats [4]; [17]): 49.9 ± 6.0 mg/dL
HDL cholesterol levels (mean value ± standard deviation) (ovariectomated rats [4]; [18]): 10.7 ± 8.2 mg/dL
Total cholesterol levels (mean value ± standard deviation) (ovariectomated rats [5]; [11]): 96.0 ± 15.0 mg/dL
Total cholesterol levels (mean value ± standard deviation) (ovariectomated rats [5]; [12]): 108.5 ± 10.3 mg/dL
Total cholesterol levels (mean value ± standard deviation) (ovariectomated rats [5]; [13]): 92.4 ± 12.1 mg/dL
Total cholesterol levels (mean value ± standard deviation) (ovariectomated rats [5]; [14]): 24.5 ± 14.4 mg/dL
Total cholesterol levels (mean value ± standard deviation) (ovariectomated rats [5]; [15]): 91.1 ± 18.3 mg/dL
Total cholesterol levels (mean value ± standard deviation) (ovariectomated rats [5]; [16]): 101.4 ± 6.3 mg/dL
Total cholesterol levels (mean value ± standard deviation) (ovariectomated rats [5]; [17]): 81.9 ± 12.6 mg/dL
Total cholesterol levels (mean value ± standard deviation) (ovariectomated rats [5]; [18]): 18.6 ± 8.3 mg/dL
Angiotensin I (ovariectomated rats [6]; [11]): 380.8 ± 35.8
Angiotensin I (ovariectomated rats [6]; [12]): 383.8 ± 47.1
Angiotensin I (ovariectomated rats [6]; [13]): 435.2 ± 53.8
Angiotensin I (ovariectomated rats [6]; [14]): 734.0 ± 75.7
Angiotensin I (ovariectomated rats [6]; [15]): 462.2 ± 71.3
Angiotensin I (ovariectomated rats [6]; [16]): 425.9 ± 43.9
Angiotensin I (ovariectomated rats [6]; [17]): 373.4 ± 42.3
Angiotensin I (ovariectomated rats [6]; [18]): 668.2 ± 68.6
Effect on angiotensin I (AI) values, in words (ovariectomated rats [6]; dose of 10 μg/day): no clear effect on AI
Influence on the angiotensin I level, summary in words (ovariectomated rats [6]): clearly below those for EE
SMILES: C#C[C@]1(O)CC[C@H]2[C@@H]3CCc4cc(OS(=O)(=O)N(CC)CC)ccc4[C@H]3CC[C@@]21C [J 271, 17β-Hydroxy-19-nor-17α-pregna-1,3,5(10)-triene-20-in-3-yl N,N-diethyl-sulfamate]
IGF1 (= somatomedin C) (ovariectomated rats [3]; [8]): 826.4 ± 96.7
IGF1 (= somatomedin C) (ovariectomated rats [3]; [9]): 593.7 ± 57.0
IGF1 (= somatomedin C) (ovariectomated rats [3]; [10]): 351.5 ± 32.6
Uterus weights (mean value) (ovariectomated rats [1]; [19]): 144.2 mg
Uterus weights (mean value) (ovariectomated rats [1]; [20]): 289.9 mg
Uterus weights (mean value) (ovariectomated rats [1]; [21]): 605.1 mg
Uterus weights (mean value) (ovariectomated rats [1]; [22]): 563.6 mg
Uterus weights (mean value) (ovariectomated rats [1]; [7]): 540.8 mg
Oral dose at which the effect on uterus growth has reached a plateau (ovariectomated rats [1]; oral): 0.01 mg/animal/day
Effects on uterus growth, comparison in words (ovariectomated rats [1]; oral, versus EE and estradiol): clear superiority to EE and great superiority to estradiol
Drop in total and HDL cholesterol levels in the blood, in words (ovariectomated rats [5]; highest dose, versus EE): still recognizably lower than that caused by EE
Effect on cholesterol levels in the blood (total and HDL), in words (ovariectomated rats [5]; up to 10 μg): did not reduce cholesterol levels in the blood
Weights of adrenal glands (mean value) (ovariectomated rats [2]; [19]): 57.1 mg
Weights of adrenal glands (mean value) (ovariectomated rats [2]; [20]): 57.4 mg
Weights of adrenal glands (mean value) (ovariectomated rats [2]; [21]): 63.1 mg
Weights of adrenal glands (mean value) (ovariectomated rats [2]; [22]): 66.5 mg
Weights of adrenal glands (mean value) (ovariectomated rats [2]; [7]): 57.9 mg
Effect on angiotensin I (AI) values, in words (ovariectomated rats [6]; dose of 100 μg/day): increases in AI values but these are significantly lower than those observed under the influence of EE or J 824

SMILES: C#CC1(O)CCC2C3CCc4cc(OS(=O)(=O)N5CCCC5)ccc4C3CCC21C (stereo not drawn) [J 272, 17β-Hydroxy-19-nor-17α-pregna-1,3,5(10)-trien-20-in-3-yl N,N-pyrrolidinosulfonate]
Uterus weights (mean value) (ovariectomated rats [1]; [7]): 620.7 mg
Weights of adrenal glands (mean value) (ovariectomated rats [2]; [7]): 57.5 mg

SMILES: C#CC1(O)CCC2C3CCc4cc(OS(=O)(=O)N(C)C)ccc4C3CCC21C (stereo not drawn) [J 665, 17β-Hydroxy-19-nor-17α-pregna-1,3,5(10)-trien-20-in-3-yl N,N-dimethyl-sulfamate]
Uterus weights (mean value) (ovariectomated rats [1]; [7]): 639.48 mg
Weights of adrenal glands (mean value) (ovariectomated rats [2]; [7]): 58.0 mg
